Test results taken from patent US20110087037A1, “SYNTHESIS OF RING B ABEO-STEROLS AS NOVEL INHIBITORS OF MYCOBACTERIUM TUBERCULOSIS” (priority 2007, published 2011).
Values after ≈ are worked out from the molar mass of the structure shown. “Also recorded” adds a separate entry of the source. Like-named read-outs stand apart in the source and are kept apart here.

Key:
[1] = patients on TB therapy; cited from earlier work
Mtb H37Rv (ATCC 27294) = assay: Microplate Alamar Blue Assay (MABA), in vitro M. tuberculosis growth inhibition; format: cell-based, Mycobacterium tuberculosis; details: for meaningful activity against Mtb: at 64 μg/mL
VERO cells (ATCC CCL-81) = assay: Cytotoxicity against VERO cells; format: cell-based
[2] = 2 μg/mL, Mtb H37Rv, MABA, mean of three experiments
[3] = 4 μg/mL, Mtb H37Rv, MABA, mean of three experiments
[4] = 8 μg/mL, Mtb H37Rv, MABA, mean of three experiments
[5] = 16 μg/mL, Mtb H37Rv, MABA, mean of three experiments
[6] = 32 μg/mL, Mtb H37Rv, MABA, mean of three experiments
[7] = 64 μg/mL, Mtb H37Rv, MABA, mean of three experiments
[8] = 128 μg/mL, Mtb H37Rv, MABA, mean of three experiments
[9] = lowest drug concentration that effected an inhibition of ≧90% relative to untreated cultures, Mtb H37Rv

SMILES	Adverse reactions, Infrequent (≧1 per 1,000 patients and <1 per 100 patients) [1]	% Inhibition (Mtb H37Rv (ATCC 27294); [2]) [%]	% Inhibition (Mtb H37Rv (ATCC 27294); [3]) [%]	% Inhibition (Mtb H37Rv (ATCC 27294); [4]) [%]	% Inhibition (Mtb H37Rv (ATCC 27294); [5]) [%]	% Inhibition (Mtb H37Rv (ATCC 27294); [6]) [%]	% Inhibition (Mtb H37Rv (ATCC 27294); [7]) [%]	% Inhibition (Mtb H37Rv (ATCC 27294); [8]) [%]	MIC (Mtb H37Rv (ATCC 27294); [9]) [µg/mL]	Cyto-toxicity IC50 (VERO cells (ATCC CCL-81))	meaningful activity against Mtb (Mtb H37Rv (ATCC 27294))	further results
CO[C@H]1/C=C/O[C@@]2(C)Oc3c(C)c(O)c4c(O)c(c(/C=N/N5CCN(C)CC5)c(O)c4c3C2=O)NC(=O)/C(C)=C\C=C\[C@H](C)[C@H](O)[C@@H](C)[C@@H](O)[C@@H](C)[C@H](OC(C)=O)[C@@H]1C [RMP, Rifampin]	Hepatitis; also recorded: Pruritus; also recorded: Flu syndrome; also recorded: Drug fever	–	–	–	–	–	–	–	–	–	–	Adverse reactions, Frequent (≧5 per 100 patients) [1]: Liver enzyme elevations; also recorded: Orange discoloration
C=C(CC[C@@H](C)[C@H]1CC[C@H]2[C@@H]3C(C=O)=C4C[C@@H](O)CC[C@]4(C)[C@H]3CC[C@]12C)C(C)C [Compound 2]	–	52	69	91	105	99	99	99	7.8 (≈ 18.9 µM)	51 µg/mL	–	–
CC[C@@H](CO)NCCN[C@@H](CC)CO [Ethambutol]	Retrobulbar neuritis; also recorded: Periaxial ocular toxicity	–	–	–	–	–	–	–	–	–	–	–
[H]/N=C(/N)N[C@H]1[C@H](O)[C@@H](O)[C@H](O[C@@H]2O[C@@H](C)[C@](O)(C=O)[C@H]2O[C@@H]2O[C@@H](CO)[C@H](O)[C@@H](O)[C@@H]2NC)[C@@H](N/C(N)=N\[H])[C@@H]1O [Streptomycin]	Renal damage	–	–	–	–	–	–	–	–	–	–	Adverse reactions, Common (≧1-5 per 100 patients) [1]: Cochlear toxicity; also recorded: Hypersensitivity; Adverse reactions, Frequent (≧5 per 100 patients) [1]: Vestibular toxicity
CCC(CCC(C)C1CCC2C3C(C=O)=C4CC(O)CCC4(C)C3CCC12C)C(C)C (centres unmarked) [Compound 5]	–	29	97	99	98	99	99	99	3.8 (≈ 8.86 µM)	26.6 µg/mL	–	–
CC(C)C(C)C1(C)CC1C(C)C1CCC2C3CC=C4CC(O)CCC4(C)C3CCC12C (centres unmarked) [Compound 8]	–	–	–	–	10	13	18	38	>128	>128 (n.d.) μg/mL	none	–
CC(C)[C@@H](C)CC[C@@H](C)[C@H]1CC[C@H]2[C@@H]3CC=C4C[C@@H](O)CC[C@]4(C)[C@H]3CC[C@]12C [Compound 10]	–	15	14	23	21	31	41	58	>128	>128 (n.d.) μg/mL	none	–
CC(C)[C@@H](C)CC[C@@H](C)[C@H]1CC[C@H]2[C@@H]3C(C=O)=C4C[C@@H](O)CC[C@]4(C)[C@H]3CC[C@]12C [Compound 11]	–	39	94	97	99	99	100	99	3.9 (≈ 9.4 µM)	–	–	–
CC(C)C(C)C1(C)CC1C(C)C1CCC2C3C(C=O)=C4CC(O)CCC4(C)C3CCC12C (centres unmarked) [Compound 9]	–	17	33	81	96	98	99	99	12.7 (≈ 28.8 µM)	–	–	–
CCC(CCC(C)C1CCC2C3CC=C4CC(O)CCC4(C)C3CCC12C)C(C)C (centres unmarked) [Compound 4]	–	−1	8	7	32	31	48	45	>128	>128 (n.d.) μg/mL	none	–
CC(C)C(=O)CC[C@@H](C)[C@H]1CC[C@H]2[C@@H]3C(C=O)=C4C[C@@H](O)CC[C@]4(C)[C@H]3CC[C@]12C [Compound 3]	–	52	67	83	92	96	100	99	13.6 (≈ 32.8 µM)	43.8 µg/mL	–	–
NC(=O)c1cnccn1 [Pyrazinamide]	Hepatitis and Rash and Nausea	–	–	–	–	–	–	–	–	–	–	Adverse reactions, Common (≧1-5 per 100 patients) [1]: Nausea; Adverse reactions, Frequent (≧5 per 100 patients) [1]: Arthralgias
C=C(CC[C@@H](C)[C@H]1CC[C@H]2[C@@H]3CC=C4C[C@@H](O)CC[C@]4(C)[C@H]3CC[C@]12C)C(C)C [Compound 1]	–	–	–	–	33	43	40	97	120.1 (≈ 301 µM)	>128 (n.d.) μg/mL	none	activity against M. tuberculosis H37Rv (Mtb H37Rv (ATCC 27294)): only marginal activity
NNC(=O)c1ccncc1 [Isoniazid]	Hepatitis; also recorded: Peripheral neuropathy; also recorded: Drug fever	–	–	–	–	–	–	–	–	–	–	Adverse reactions, Frequent (≧5 per 100 patients) [1]: Liver enzyme
CC(C)CCC[C@@H](C)[C@H]1CC[C@H]2[C@@H]3C(C=O)=C4C[C@@H](O)CC[C@]4(C)[C@H]3CC[C@]12C [Compound 7]	–	10	34	51	96	99	99	99	15 (≈ 37.4 µM)	> 128 µg/mL	–	–
CC(C)CCC[C@@H](C)[C@H]1CC[C@H]2[C@@H]3CC=C4C[C@@H](O)CC[C@]4(C)[C@H]3CC[C@]12C [Compound 6, cholesterol]	–	–	–	–	–	–	–	–	–	–	none	inhibition at 16 µg/mL (Mtb H37Rv (ATCC 27294); Mycobacterium tuberculosis, 16 μg/mL, Mtb H37Rv, MABA, mean of three experiments): 33%; inhibition at 32 µg/mL (Mtb H37Rv (ATCC 27294); Mycobacterium tuberculosis, 32 μg/mL, Mtb H37Rv, MABA, mean of three experiments): 13%; inhibition at 64 µg/mL (Mtb H37Rv (ATCC 27294); Mycobacterium tuberculosis, 64 μg/mL, Mtb H37Rv, MABA, mean of three experiments): 24%; inhibition at 128 µg/mL (Mtb H37Rv (ATCC 27294); Mycobacterium tuberculosis, 128 μg/mL, Mtb H37Rv, MABA, mean of three experiments): 57%; MIC (Mtb H37Rv (ATCC 27294); Mycobacterium tuberculosis, read-out: MIC): > 128 µg/mL
